Source: patent publication US7238716B2, “Alkanoic acid derivatives process for their production and use thereof” (Takeda Pharmaceuticals Company Limited, priority 2000, dated 2007)
Where two headings read alike, the source gives them in different places.

How the values were obtained:
KKAY mice = experiment: Hypoglycemic and hypolipidemic actions in mice (Test Example 1); assay type: in vivo; details: Mus musculus, po, 96 h, four days; for inhibition in vivo at 0.005 %: 0.005% in powdery diet; for inhibition in vivo at 0.01 %: 0.01% in powdery diet
Outline: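 Compounds given in powdered diet at 0.01% or 0.005% ad libitum for four days to KKAY mice (11–12 weeks old, 5 per group). Plasma glucose and triglyceride measured enzymatically from orbital blood; values are percent reduction relative to untreated group taken as 100%.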

PPARγ-RXRα heterodimer = molecular target: T1, PPARγ-RXRα heterodimer (Homo sapiens, UniProt P37231); experiment: PPARγ-RXRα heterodimer ligand activity, luciferase reporter in PPARγ:RXRα:4ERPP/CHO-K1 cells (Test Example 3); assay type: cell-based; details: concentration for 50% of the maximum fold induction of luciferase activity; 48 hours, CHO-K1 cells
T1 construct: expressed in transfected cells; host or cells: CHO-K1
T1 sequence (P37231 1-477 isoform P37231-2): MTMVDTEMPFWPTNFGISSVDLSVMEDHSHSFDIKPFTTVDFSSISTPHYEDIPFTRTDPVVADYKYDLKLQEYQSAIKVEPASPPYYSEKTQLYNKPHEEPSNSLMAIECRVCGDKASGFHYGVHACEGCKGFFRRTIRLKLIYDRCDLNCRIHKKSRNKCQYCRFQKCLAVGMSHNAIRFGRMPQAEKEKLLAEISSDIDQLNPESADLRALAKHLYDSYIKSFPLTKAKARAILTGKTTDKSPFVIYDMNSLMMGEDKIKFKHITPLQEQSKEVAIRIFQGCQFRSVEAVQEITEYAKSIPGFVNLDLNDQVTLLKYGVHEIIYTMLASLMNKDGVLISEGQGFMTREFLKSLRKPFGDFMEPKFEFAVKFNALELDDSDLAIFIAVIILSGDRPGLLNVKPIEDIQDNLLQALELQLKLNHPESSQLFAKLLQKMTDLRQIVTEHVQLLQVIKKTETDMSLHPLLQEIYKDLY
T1 sequence (P19793 1-462 partner): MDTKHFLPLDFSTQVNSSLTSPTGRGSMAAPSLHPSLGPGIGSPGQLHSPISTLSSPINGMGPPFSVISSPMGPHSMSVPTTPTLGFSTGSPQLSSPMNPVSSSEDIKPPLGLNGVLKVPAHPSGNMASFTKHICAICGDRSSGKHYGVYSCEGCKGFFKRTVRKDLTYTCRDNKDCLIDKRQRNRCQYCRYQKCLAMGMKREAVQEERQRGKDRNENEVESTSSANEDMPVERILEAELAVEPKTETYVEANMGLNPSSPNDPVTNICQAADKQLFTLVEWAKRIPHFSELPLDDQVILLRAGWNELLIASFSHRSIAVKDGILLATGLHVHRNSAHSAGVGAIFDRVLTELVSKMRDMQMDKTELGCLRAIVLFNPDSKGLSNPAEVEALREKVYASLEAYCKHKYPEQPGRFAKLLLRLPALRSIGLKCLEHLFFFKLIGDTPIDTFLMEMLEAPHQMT
Outline: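 CHO-K1 cells stably carrying hPPARγ/RXR expression plasmid and 4ERPP-TK luciferase reporter, treated 48 h at 37 °C in HAM F12 with 0.1% fatty-acid-free BSA. Luciferase fold induction taken over untreated cells; EC50 at 50% of maximal fold induction.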

[1] = percent reduction of plasma glucose level vs non-administration group, read-out: hypoglycemic action (%)
[2] = percent reduction of plasma triglyceride level vs non-administration group, read-out: hypolipidemic action (%)

| EC50 (PPARγ-RXRα heterodimer) [µM] | Structure (SMILES) | inhibition in vivo at 0.005 % (KKAY mice; [1]) [%] | inhibition in vivo at 0.005 % (KKAY mice; [2]) [%] | inhibition in vivo at 0.01 % (KKAY mice; [1]) [%] | inhibition in vivo at 0.01 % (KKAY mice; [2]) [%] |
| --- | --- | --- | --- | --- | --- |
| 0.39 | Cc1sc(-c2ccccc2)nc1COc1ccc(COc2ncccc2CC(=O)O)cc1 [Example 93, 2-[2-[4-[(5-methyl-2-phenyl-4-thiazolyl)methoxy]benzyloxy]-3-pyridyl]acetic acid] | 45 | 53 |  |  |
| 0.0017 | COc1cc(COc2ncccc2CC(=O)O)ccc1OCc1nc(-c2ccccc2)oc1C [Example 91, 2-[2-[3-methoxy-4-[(2-phenyl-5-methyl-4-oxazolyl)methoxy]benzyloxy]-3-pyridyl]acetic acid] | 50 | 67 |  |  |
| 0.02 | Cc1oc(-c2ccccc2)nc1COc1cc(COc2cccc(CC(=O)O)c2)ccn1 [Example 62, 2-[3-[2-[(5-methyl-2-phenyl-4-oxazolyl)methoxy]-4-pyridylmethoxy]phenyl]acetic acid] | 47 | 44 |  |  |
| 0.015 | Cc1oc(-c2ccccc2)nc1COc1ccc(COc2ccccc2CC(=O)O)cn1 [Example 41, 2-[2-[[6-[(5-methyl-2-phenyl-4-oxazolyl)methoxy]-3-pyridyl]methoxy]phenyl]acetic acid] | 48 | 93 |  |  |
| 0.23 | Cc1sc(-c2ccccc2)nc1COc1ccc(COc2ccccc2CC(=O)O)cc1 [Example 52, 2-[2-[4-[(5-methyl-2-phenyl-4-thiazolyl)methoxy]benzyloxy]phenyl]acetic acid] | 56 | 61 |  |  |
| 0.059 | Cc1oc(-c2ccccc2)nc1COc1cc(COc2ncccc2CC(=O)O)on1 [Example 129, 2-[2-[[3-[(5-methyl-2-phenyl-4-oxazolyl)methoxy]-5-isoxazolyl]methoxy]-3-pyridyl]acetic acid] | 45 | 93 |  |  |
| 0.062 | Cc1oc(-c2ccccc2)nc1COc1ccc(COc2ccccc2CC(=O)O)cc1 [Example 11, 2-[2-[4-[(5-methyl-2-phenyl-4-oxazolyl)methoxy]benzyloxy]phenyl]acetic acid] | 56 | 84 |  |  |
| 0.29 | Cc1oc(-c2ccccc2)nc1COc1ccc(COc2cccc(CC(=O)O)c2)cc1 [Example 1, 2-[3-[4-[(5-methyl-2-phenyl-4-oxazolyl)methoxy]benzyloxy]phenyl]acetic acid] | 21 | 33 |  |  |
| 0.18 | Cc1oc(-c2ccco2)nc1COc1ccc(COc2ccccc2CC(=O)O)cc1 [Example 50, 2-[2-[4-[[2-(2-furyl)-5-methyl-4-oxazolyl]methoxy]benzyloxy]phenyl]acetic acid] | 54 | 77 |  |  |
| 0.37 | Cc1oc(-c2ccco2)nc1COc1ccc(COc2ncccc2CC(=O)O)cc1 [Example 92, 2-[2-[4-[[2-(2-furyl)-5-methyl-4-oxazolyl]methoxy]benzyloxy]-3-pyridyl]acetic acid] | 58 | 83 |  |  |
| 0.036 | CCOc1ccc(OCc2ccc(OCc3nc(-c4ccccc4)oc3C)cc2)cc1CCC(=O)O [Example 7, 3-[2-ethoxy-5-[4-[(5-methyl-2-phenyl-4-oxazolyl)methoxy]benzyloxy]phenyl]propionic acid] |  |  | 48 | 62 |
| 0.077 | Cc1oc(-c2ccccc2)nc1COc1cccc(COc2cccc(CC(=O)O)c2)c1 [Example 32, 2-[[3-[3-(5-methyl-2-phenyl-4-oxazolyl)methoxy]benzyloxy]phenyl]acetic acid] |  |  | 40 | 53 |
